Source: US10800834B2, “HER-1, HER-3 and IGF-1R compositions and uses thereof” (OHIO STATE INNOVATION FOUNDATION, priority 2013, dated 2020)
“Also recorded” adds a separate entry of the source.

Columns and labels:
[1] = system: BxPC-3, MCF-7 and JIMT-1 cancer cells; assay: MTT proliferation assay with IGF-1R peptide mimics; assay type: cell-based, human; conditions: 25, 50, 100, 150 μg/ml, three days
Procedure: The effects of treatment with the IGF-1R peptide mimics were evaluated as inhibitors on proliferation of human pancreatic (BxPC-3) and breast (MCF-7 and JIMT-1) cancer cells. Ligand binding to the IGF-1 receptor results in activation that causes increase proliferation of the receptor and intracellular signaling. Accordingly, the effects of the IGF-1R peptide mimics on ligand binding inhibition and inhibition of cancer cell line proliferation were determined. To measure proliferation, the MTT assay was used where the cells were treated with the inhibitors at different concentrations and incubated for three days before adding MTT.

[2] = system: BxPC-3 pancreatic and JIMT-1 breast cancer cells; assay: SCID transplantable breast and pancreatic mouse model, IGF-1R peptides; assay type: in vivo; conditions: 200 μg i.v. weekly for 7 weeks; P values <0.05
Procedure: To test the in vivo effects of the chimeric peptides, a transplantable breast and pancreatic mouse model was used. BxPC-3 pancreatic and JIMT-1 breast cancer cells were injected subcutaneously into the flanks of SCID mice. After tumor challenge, the mice were treated intravenously with the IGF-1R peptide mimics starting at day zero (day of tumor challenge) and weekly for a total of 7 weeks. Tumor growth was monitored twice weekly and at the end of treatment, all mice were euthanized and the tumors extracted and weighed and the percentage tumor weight calculated.

IGF-1R = molecular target: T1, IGF-1R (Homo sapiens, UniProt P08069); assay: Human-phospho-IGF-1R sandwich ELISA; assay type: cell-based; conditions: MCF-7, JIMT-1 and BxPC-3 cells
T1 construct: IGF-1 signaling in MCF-7, JIMT-1 and BxPC-3 cells were analyzed using protein lysates after treatment; endogenous in cells; host or cells: MCF-7, JIMT-1 (human breast cancer) and BxPC-3 (human pancreatic cancer) cells
Procedure: The effects of chimeric peptides and antipeptide antibodies on IGF-1 signaling in MCF-7, JIMT-1 and BxPC-3 cells were analyzed using protein lysates after treatment and measurement of phosphorylated levels of the receptors in a sandwich ELISA method using Human-phospho-IGF-1R ELISA kit from R&D diagnostics. […] FIG. 22 A-C is treatment with peptide mimics and FIG. 22-D-F is treatment with peptide vaccine antibodies.

[3] = system: New Zealand white outbred rabbits; assay: Immunogenicity of MVF HER-3 peptide constructs in rabbits (ELISA titers); assay type: in vivo, rabbit
Procedure: Two female New Zealand white outbred rabbits (Harlan) were immunized intramuscularly with 1 mg of MVF HER-3 (237-269) or MVF HER-3 (461-479) peptide dissolved in 500 μL PBS and emulsified in 500 μL of Montanide ISA720 vehicle with 100 μg muramyl dipeptide adjuvant, nor-MDP (N-acetylglucosamine-3yl-acetyl-L-alanyl-D-isoglutamine). Subsequent booster injections were given every three weeks after primary immunization. Sera of rabbits immunized with either MVF peptide were collected weekly, and complement was inactivated by heating to 56° C. for 30 minutes. The titer of anti-HER-3 peptide antibodies were quantified by ELISA. The MVF HER-3 (237-269) and MVF HER-3 (461-479) peptides were highly immunogenic by three weeks after the third immunization. Antibody titers against MVF HER-3 (461-479) and MVF HER-3 (237-269) were ≥32,000 and ≥128,000, respectively (FIGS. 9 A & B). High antibody titers were also generated against B cell epitope constructs. HER-3 (461-479) and HER-3 (237-269) antibody titers were ≥16,000 and ≥128,000, respectively (Data not shown). Total IgG was purified from high-titered sera on a protein A/G column (Pierce, Rockford, Ill.) and eluted antibodies were concentrated and exchanged in PBS using 100 kDa cutoff centrifuge filter units (Millipore). Antibody concentrations were determined by Coomassie plus protein assay reagent kit (Pierce).

BXPC3 cells [4] = assay: BALB/c SCID transplantable mouse model, BXPC3, HER-3 peptide mimics; assay type: in vivo; conditions: BXPC3, peptide mimics i.v. weekly
Procedure: To test the in vivo effects of the peptide mimics, two transplantable mouse models were used. Mice 4-5 weeks old were challenged with either BXPC3 or JIMT-1 cells subcutaneously into the flank. After tumor challenge, mice were treated intravenously with the peptide mimics starting at day zero (day of tumor challenge) and weekly for a total of 8-9 treatments. Tumor growth was monitored twice weekly and at the end of treatment. All mice were euthanized and weighed. Tumors were also extracted and weighed. Results display tumor volume and % tumor weight (FIG. 16 A-D). Both peptide constructs had the ability to attenuate tumor growth in mice challenged with BXPC3 cells. […] As a result, only the HER-3 (461-479) peptide was used in JIMT-1 tumor model.

BxPC3 cells [5] = assay: MTT inhibition assay with HER-3 peptide mimics, BxPC3; assay type: cell-based, human; conditions: 72 hours, HRG stimulated
Procedure: The HER-3 peptide mimics and peptide vaccine antibodies may provide anti-tumor activity by blocking dimerization or ligand binding of the HER-3 receptor. To test the ability of the chimeric peptides to elicit antitumor effects, HER-3 positive cells were examined in a MTT inhibition assay. The anti-proliferative effects of the peptide mimics were tested at various concentrations (FIG. 13). Taxol, an inhibitor of mitosis, was used as a positive control (data not shown). Cells were seeded in 96 well flat bottom plates at 1×10^4 cells/well in 100 μl growth media and allowed to adhere overnight at 37° C. Media was removed from the wells and replaced with HER3 peptides made up in 1% growth media. Plates were incubated for 1 hour at 37° C., and subsequently stimulated with either 50 ng/mL HRG. Plates were incubated an additional 72 hours at 37° C. before 25 μL of 5 mg/mL MTT was added to each well. Plates were incubated for 2 hours at 37° C., then 100 μL extraction buffer (20% SDA, 50% DMF, pH 4.7) was added. Plates were incubated overnight at 37° C. and read on an ELISA reader at 570 nm. Percent inhibition was calculated by the following equation: (untreated-treated)/untreated×100. Error bars represent SEM of three separate experiments. […] The HER-3 peptide mimics inhibited proliferation of BXPC3, MCF-7 and JIMT-1 cell lines in a dose-dependent manner. […]

Met-1 cells = assay: FVB/n Met-1 transplantable breast tumor model; assay type: in vivo, mouse; conditions: peptide mimics i.v. weekly; for tumor growth and development: vs untreated and irrelevant peptide
Procedure: Antitumor effects of immunization with HER-1 peptide vaccines and chimeric peptides in Fvb/n breast cancer model The Fvb/n transplantable model of HER-family dependent breast cancer represents a good model for human breast cancer. The peptide vaccines were dissolved in water and emulsified in Montanide ISA 720 (1:1) and […] (N-acetylglucosamine-3yl-acetyl-1-alanyl-D-isoglutamine). Female wild-type FVB/n mice (Charles River Laboratories) at the age of 5 to 6 weeks were immunized three times at 3-week intervals with […], and 14 days after the third immunization, the mice were challenged s.c. with Met-1 cells (200,000 per mouse). Met-1 cells were derived from the PyMT-transgenic mouse model with FVB/n background. Tumor growth was monitored for up to 6 weeks after challenge. During immunization, blood was drawn biweekly and used in ELISA to monitor Ab titers. In the case of treatment with the chimeric peptides, the mice were simply challenged with Met-1 cells and treated weekly i.v. with […] for up to 6 weeks beginning at day 0. The mice were euthanized at the end of treatment and tumors extracted and weighed.
Tumor tissues were formalin fixed, embedded in paraffin, and stained immunohistochemically for CD31 and Ki-67. The tissue blocks were cut into […], deparaffinized in xylol, and then rehydrated with different grades of alcohol. The rehydrated sections were then washed with distilled water and placed in a microwave oven for 15 minutes. The slides were then blocked and incubated for 40 minutes at 20° C. with primary Abs specific for Ki-67 and CD31.
To evaluate the inhibitory effects of the peptide vaccines in vivo, the FVB/n transplantable mouse model was used in which Met-1 cells from FVB/n background were injected in the mammary fat pad of wild-type FVB/n mice after immunization with the chimeric MVF HER-1 peptides as shown in the immunization schedule (data not shown). Tumor development in this model is dependent on the HER family receptor overexpression. All mice were immunized at 5 to 6 weeks of age and received two boosters at 3-week intervals. As depicted in FIG. 5, the vaccine constructs were immunogenic in the mice, and all of the mice had relatively high titers of the Abs (greater than 40,000). Mice were challenged with Met-1 cells and monitored weekly for 6 weeks.
To test the in vivo effects of the peptide mimics, the same FVB/n model was used as in the case of immunization, but in this experiment, wild-type mice were challenged with Met-1 cells and treated i.v. with the peptide mimics. […] In assessing how the peptide inhibitors exert their effects in vivo, the tumor sections were analyzed after treatment with the peptide mimics for blood vessel density and actively proliferating cells. […] The effect on proliferating cells was most evident in the case of treatment with the 382-410 and the 418-435 constructs (FIG. 7C).

A549 lung cancer cells = assay: BALB/c SCID transplantable lung tumor model; assay type: in vivo, mouse; set-up: dose or concentration left out as unconfirmed; conditions: i.v. weekly, peptide mimics or cetuximab
Procedure: […] Tumor growth was measured twice weekly using vernier calipers, and at the end of the experiment, the tumors were extracted and weighed.

[6] = Immunization of transgenic mice with chimeric peptides (summary statement); assay type: in vivo, mouse; conditions: immunization of transgenic mice with one or more of the chimeric peptides

Question: What does the source list for “ACPPNTYRFEGWRCVDRDF (Ac-ACPPNTYRFEGWRCVDRDF-NH2; cysteine pairing not given here; listed as Homo sapiens) [IGF-1R (234-252), peptide mimic acetylated and amidated]”?
Answer: inhibition of proliferation (MTT) [1]: inhibition of all three cell lines which was dose dependent; also recorded: dose-dependent inhibition of proliferation; percentage tumor weight [2]: significantly decreased the percentage tumor weight; phosphorylated IGF-1R, treatment with peptides (IGF-1R): able to downregulate the expression of phosphorylated IGF-1R

Question: Which “antibody titers against B cell epitope constructs” value ([3]; sera of rabbits immunized with MVF HER-3 peptides, data not shown) does the source give for “ERLDIKHNRPRRDCVAEGK (Ac-ERLDIKHNRPRRDCVAEGK-NH2; listed as Homo sapiens) [HER-3 (461-479), peptide mimic acetylated and amidated]” here?
Answer: Its value is ≥ 16,000.

Question: What about the “% tumor weight” value (BXPC3 cells [4]) of the same substance?
Answer: Its value is “significantly decreased the % tumor weight”.

Question: What about the tumor growth (BXPC3 cells [4]) of the same substance?
Answer: Its tumor growth is “greater anti-tumor effects”.

Question: Which “Percent inhibition of proliferation” value (BxPC3 cells [5]) does the source give for “FVMLNYNTNSSHALRQLRLTQLTE (Ac-FVMLNYNTNSSHALRQLRLTQLTE-NH2; listed as Homo sapiens) [HER-3 (99-122), peptide mimic acetylated and amidated]” here?
Answer: The value was ~80%.

Question: Which “tumor growth and development” value (Met-1 cells) does the source give for “KIEFMYPPPYLDNERSNGTI [irrelevant peptide, negative control peptide, reference compound]” here?
Answer: The value was “no inhibitory effects”.

Question: Which “delay in tumor onset” value (Met-1 cells) does the source give for “LIQAWPENRTDLHAFENLEIIRGRTKQHG (Ac-LIQAWPENRTDLHAFENLEIIRGRTKQHG-NH2; listed as Homo sapiens) [HER-1 (382-410), peptide mimic acetylated and amidated]” here?
Answer: The value was “approximately 2 weeks”.

Question: What about the “microvascular density (CD31) in tumor sections” value (Met-1 cells) of the same substance?
Answer: Its value is “significant reduction in microvascular density”.

Question: And the percentage tumor weight (Met-1 cells)?
Answer: The percentage tumor weight was “greater inhibitory effects”.

Question: What about the “proliferating cells (Ki-67) in tumor sections” value (Met-1 cells) of the same substance?
Answer: The value was “most evident”.

Question: What about the “tumor growth and development” value (Met-1 cells) of the same substance?
Answer: The value was “decrease in tumor growth and development”.

Question: And the “tumor growth and development” value (A549 lung cancer cells)?
Answer: Its value is “significantly delayed tumor growth and development”.

Question: What does the source list for “LLFRVAGLESLGDLFPNLTVIRGWKL (Ac-LLFRVAGLESLGDLFPNLTVIRGWKL-NH2; listed as Homo sapiens) [IGF-1R (56-81), peptide mimic acetylated and amidated]”?
Answer: inhibition of proliferation (MTT) [1]: inhibition of all three cell lines which was dose dependent; also recorded: dose-dependent inhibition of proliferation; percentage tumor weight [2]: significantly decreased the percentage tumor weight; phosphorylated IGF-1R, treatment with peptides (IGF-1R): able to downregulate the expression of phosphorylated IGF-1R

Question: For “MVF HER-3 (461-479): HER-3 (461-479) synthesized collinearly with modified MVF epitope (SEQ ID NO:12) and GPSL linker (KLLSLIKGVIVHRLEGVEGPSLERLDIKHNRPRRDCVAEGK)”, which “Antibody titers against MVF peptide” value ([3]; three weeks after the third immunization) is on record?
Answer: Its value is ≥ 32,000.

Question: And the “tumor growth after immunization” value [6]?
Answer: The value was “significant delay of tumor growth”.

Question: What does the source list for “SLNITSLGLRSLKEISDG (Ac-SLNITSLGLRSLKEISDG-NH2; listed as Homo sapiens) [HER-1 (418-435), peptide mimic acetylated and amidated]”?
Answer: delay in tumor onset (Met-1 cells): approximately 2 weeks; microvascular density (CD31) in tumor sections (Met-1 cells): significant reduction in microvascular density; percentage tumor weight (Met-1 cells): greater inhibitory effects; proliferating cells (Ki-67) in tumor sections (Met-1 cells): most evident; tumor growth and development (Met-1 cells): decrease in tumor growth and development; tumor growth and development (A549 lung cancer cells): significantly delayed tumor growth and development
